Measurements: article PMC4129416, “YLT192, a Novel, Orally Active Bioavailable Inhibitor of VEGFR2 Signaling with Potent Antiangiogenic Activity and Antitumor Efficacy in Preclinical Models” (Scientific Reports, 2014)

Key:
[1] = tested on: HUVEC; test: EdU incorporation assay, VEGF165-stimulated HUVEC; format: cell-based, human
Protocol: The inhibition effect of YLT192 on VEGF165-stimulated HUVEC growth was examined using MTT assay.
EdU is a thymidine analogue used to label proliferating cells which can incorporate into replication DNA when cells are dividing. Cells growing in 96-well plates were treated with different concentrations of YLT192 for 24 hours, and then assayed with Cell-Light™ EdU DNA Cell Proliferation Kit according to the manufacture's instructions. Each assay was replicated 3 times.
Supplementary Figure S2. YLT192 inhibited VEGF-stimulated HUVECs proliferation in the EdU incorporation assay. The EdU-positive(red ﬂuorescent staining) cells and Hoechst staining(blue ﬂuorescent staining) cells represented proliferating and total cells, respectively(100×). Quantification was shown on the right panels. Data represent the mean ± SEM of three different experiments. Each experiment was performed in duplicate. *P<0.05, **P<0.01. […]

[2] = tested on: A375; test: Inhibition of tumor cell growth; format: cell-based; conditions: A-375; A375, human melanoma; 48 hour treatment; means ± SD, n=3
Protocol: (§1) The proliferative inhibitory ability of YLT192 on tumor cells was investigated. […] Inhibition of cell proliferation is a possible approach for cancer treatment. EdU incorporation assay was performed to investigate the anti-proliferative effects of YLT192 against U251 and HCT116 cells. […]
(§2) treatment with YLT192. Data are means ± SD, n=3. cell line cell type IC50(μM)
(§3) HCT116 human colorectal carcinoma 7.4 ±0.5
(§4) A431 human pidermoid carcinoma 7.7 ±0.9
(§5) BxPC-3 human pancreatic cancer 8.2 ±0.6
(§6) Hep G2 human hepatocellular carcinoma 7.9 ±0.5
(§7) SW620 human colorectal carcinoma 7.9 ±1.7
(§8) SKOV-3 human ovarian carcinoma 8.2 ±1.5
(§9) LS147T human colorectal carcinoma 9.0 ±1.1
(§10) PANC-1 human pancreatic cancer 9.8 ±1.9
(§11) BEL7402 human hepatocellular carcinoma 11.3 ±1.1
(§12) MDA-MB-231 human mammary carcinoma 11.9 ±2.1
(§13) SMMC-7721 human hepatocellular carcinoma 12.1 ±1.6
(§14) SPC-A1 human lung cancer 16.4 ±1.4
(§15) MCF-7 human mammary carcinoma 16.8 ±1.7
(§16) Hela human epithelial carcinoma 18.9 ±2.4
(§17) MV4-11 human acute myeloid leukemia 21.9 ±1.9
(§18) COLO-205 human colorectal carcinoma 23.0 ±1.5

[3] = tested on: B16; test: Inhibition of tumor cell growth; format: cell-based; conditions: B16, mouse melanoma; 48 hour treatment; means ± SD, n=3
Protocol: as §1, §2, §3, §4, §5, §6, §7, §8, §9, §10, §11, §12, §13, §14, §15, §16, §17, §18

[4] = tested on: DU145; test: Inhibition of tumor cell growth; format: cell-based; conditions: DU-145; DU145, human prostate cancer; 48 hour treatment; means ± SD, n=3
Protocol: as §1, §2, §3, §4, §5, §6, §7, §8, §9, §10, §11, §12, §13, §14, §15, §16, §17, §18

[5] = tested on: NIH-H1975; test: Inhibition of tumor cell growth; format: cell-based; conditions: NIH-H1975, human lung cancer; 48 hour treatment; means ± SD, n=3
Protocol: as §1, §2, §3, §4, §5, §6, §7, §8, §9, §10, §11, §12, §13, §14, §15, §16, §17, §18

[6] = tested on: U251; test: Inhibition of tumor cell growth; format: cell-based; conditions: U-251; U251, human glioblastoma; 48 hour treatment; means ± SD, n=3
Protocol: as §1, §2, §3, §4, §5, §6, §7, §8, §9, §10, §11, §12, §13, §14, §15, §16, §17, §18

[7] = tested on: A2058; test: Inhibition of tumor cell growth; format: cell-based; conditions: A2058, human melanoma; 48 hour treatment; means ± SD, n=3
Protocol: (§19) The proliferative inhibitory ability of YLT192 on tumor cells was investigated. […] Inhibition of cell proliferation is a possible approach for cancer treatment. EdU incorporation assay was performed to investigate the anti-proliferative effects of YLT192 against U251 and HCT116 cells.
(§20) treatment with YLT192. Data are means ± SD, n=3.

[8] = tested on: A875; test: Inhibition of tumor cell growth; format: cell-based; conditions: A875, human melanoma; 48 hour treatment; means ± SD, n=3
Protocol: as §19, §20

[9] = tested on: COLO-205; test: Inhibition of tumor cell growth; format: cell-based; conditions: COLO-205, human colorectal carcinoma; 48 hour treatment; means ± SD, n=3
From the text: Data are means ± SD, n=3.
cell line cell type IC50(μM) […]
as §18

[10] = tested on: HCT116 cells; test: EdU incorporation assay; format: cell-based, human; conditions: 24 h treatment, concentration-dependent
Protocol: as §19
(§21) Figure 4 Inhibitory effects of YLT192 on tumor cells. (A) YLT192 inhibited U251 and HCT116 cells proliferation. The EdU incorporation assay was conducted on U251 and HCT116 cells after treated with YLT192 for 24 hours. The EdU-positive (red fluorescent staining) cells and Hoechst staining (blue fluorescent staining) cells represented proliferating and total cells in the fluorescent images, respectively (100×). Quantification was shown on the right panels. (B) YLT192 induced apoptosis of HCT116 cells. HCT116 cells were treated with YLT192 or vehicle for 48 hours followed by flow cytometric analysis of annexin V-FITC and PI staining. The proportion of early apoptotic cells (annexin V positive) and late apoptotic cells (annexin V and PI positive cells) were shown. Typical apoptosis-related proteins caspase 3 and Bax were detected by western blot. Each has the expression of β-actin as internal control. […] U251 and HCT116 cells were treated with YLT192 or vehicle for 48 hours and the expression of protein in different signaling pathways were detected by western blot with specific antibodies. […]

[11] = tested on: U251 cells; test: EdU incorporation assay; format: cell-based, human; conditions: 24 h treatment, concentration-dependent
Protocol: as §19, §21

`CNC(=O)c1cc(Oc2ccc(NC(=O)c3cccc(OC)c3)cc2)ccn1` [YLT192] was tested, and the “VEGF165-stimulated HUVEC proliferation, EdU incorporation” value [1] was “inhibited VEGF165-stimulated HUVEC proliferation”, the IC50 [2] was 12.4 ± 1.1 µM and the IC50 [3] was 21.2 ± 2.1 µM. It also gave an IC50 [4] of 22.8 ± 2.6 µM, an IC50 [5] of 27.3 ± 1.2 µM and an IC50 [6] of 6.5 ± 0.8 µM. It also gave an IC50 [7] of 10.7 ± 1.1 µM, an IC50 [8] of 14.1 ± 2.1 µM and an IC50 [9] of 23 ± 1.5 µM. The “percentage of proliferating cells, EdU incorporation” value [10] was “decreased a lot” and the “percentage of proliferating cells, EdU incorporation” value [11] was “decreased a lot”.
